The values that follow come from patent US8617562B2, “FOXM1 peptides and immunogenic compositions containing them” (OncoTherapy Science, Inc., priority 2009, dated 2013).

Test [1] has as its system peptide-pulsed TISI cells. The experiment in a line: IFN-gamma ELISA assay of CTL clones established by limiting dilution. Format: cell-based, human. Conditions: peptide-pulsed target cells vs not pulsed. The procedure:
The dilutions were made to have 0.3, 1, and 3 CTLs/well in 96 round-bottomed micro titer plate (Nalge Nunc International). CTLs were cultured with 1×10^4 cells/well of 2 kinds of human B-lymphoblastoid cell lines, 30 ng/ml of anti-CD3 antibody, and 125 U/ml of IL-2 in a total of […] of AIM-V Medium containing 5% AS. 50 micro-1/well of IL-2 were added to the medium 10 days later so to reach a final concentration of 125 U/ml IL-2. CTL activity was tested on the 14th day, and CTL clones were expanded using the same method as described above (Uchida N et al., Clin Cancer Res 2004 Dec. 15, 10(24): 8577-86; Suda T et al., Cancer Sci 2006 May, 97(5): 411-9; Watanabe T et al., Cancer Sci 2005 August, 96(8): 498-506).
(§1) Specifically, peptide-pulsed TISI (1×10^4 cells/well) was prepared as stimulator cells. Cultured cells in 48 wells were used as responder cells. IFN-gamma ELISPOT assay and IFN-gamma ELISA assay were performed under manufacture procedure.
(§2) CTL activity of those CTL lines was determined by IFN-gamma ELISA assay (FIGS. 2a-d). […] Furthermore, CTL clones were established by limiting dilution from the CTL lines, and IFN-gamma production from CTL clones against target cells pulsed peptide was determined by IFN-gamma ELISA assay.

Test [2] deals with COS7 cells transfected with FOXM1 and HLA-A*2402. Briefly: Specific CTL activity against target cells exogenously expressing FOXM1 and HLA-A*2402. Type of test: cell-based, African green monkey. An excerpt: The cDNA encoding an open reading frame of target genes or HLA-A*2402 was amplified by PCR. The PCR-amplified products were cloned into pCAGGS vector. The plasmids were transfected into COST, which is the target genes and HLA-A24 negative cell line, using lipofectamine 2000 (Invitrogen) according to the manufacturer's recommended procedures. After 2 days from transfection, the transfected cells were harvested with versene (Invitrogen) and used as the target cells (5×10^4 cells/well) for CTL activity assay.
The established CTL lines and clones raised against these peptides were examined for their ability to recognize target cells that endogenously express FOXM1 and HLA-A*2402 gene. […] COS7 cells transfected with either full length of FOXM1 genes or HLA-A*2402 were prepared as controls.

The subject of test [3] is peptide-pulsed TISI cells. The experiment in a line: IFN-gamma ELISPOT assay on CTLs induced with FOXM1 peptides. To be noted: target cells pulsed with the peptide vs not pulsed, day 21 after 3rd stimulation. Type of test: cell-based, human.
Source text: Monocyte-derived dendritic cells (DCs) were used as antigen-presenting cells to induce cytotoxic T lymphocyte (CTL) responses against peptides presented on human leukocyte antigen (HLA). DCs were generated in vitro as described elsewhere (Nakahara S et al., Cancer Res 2003 Jul. 15, 63(14): 4112-8). Specifically, peripheral blood mononuclear cells (PBMCs) isolated from a normal volunteer (HLA-A*2402 positive) by Ficoll-Plaque (Pharmacia) solution were separated by adherence to a plastic tissue culture dish (Becton Dickinson) so as to enrich them as the monocyte fraction. The monocyte-enriched population was cultured in the presence of 1000 U/ml of granulocyte-macrophage colony-stimulating factor (R&D System) and 1000 U/ml of interleukin (IL)-4 (R&D System) in AIM-V Medium (Invitrogen) containing 2% heat-inactivated autologous serum (AS). After 7 days of culture, the cytokine-induced DCs were pulsed with 20 micro-g/ml of each of the synthesized peptides in the presence of 3 micro-g/ml of beta2-microglobulin for 3 hrs at 37 degrees C. in AIM-V Medium. The generated cells appeared to express DC-associated molecules, such as CD80, CD83, CD86 and HLA class II, on their cell surfaces (data not shown). These peptide-pulsed DCs were then inactivated by X-irradiation (20 Gy) and mixed at a 1:20 ratio with autologous CD8+ T cells, obtained by positive selection with CD8 Positive Isolation Kit (Dynal). These cultures were set up in 48-well plates (Corning); each well contained 1.5×10^4 peptide-pulsed DCs, 3×10^5 CD8+ T cells and 10 ng/ml of IL-7 (R&D System) in 0.5 ml of AIM-V/2% AS medium. Three days later, these cultures were supplemented with IL-2 (CHIRON) to a final concentration of 20 IU/ml. On days 7 and 14, the T cells were further stimulated with the autologous peptide-pulsed DCs. The DCs were prepared each time by the same way described above. CTLs were tested against peptide-pulsed TISI cells after the 3rd round of peptide stimulation on day 21 (Tanaka H et al., Br J Cancer 2001 Jan. 5, 84(1): 94-9; Umano Y et al., Br J Cancer 2001 Apr. 20, 84(8): 1052-7; Uchida N et al., Clin Cancer Res 2004 Dec. 15, 10(24): 8577-86; Watanabe T et al., Cancer Sci 2005 August, 96(8): 498-506; Suda T et al., Cancer Sci 2006 May, 97(5): 411-9).
as §1
CTLs for those peptides derived from FOXM1 were generated according to the protocols as described in “Materials and Methods”.

The test system of test [4] is peptide-pulsed TISI cells. Briefly: IFN-gamma ELISA assay of CTL lines stimulated with FOXM1 peptides. Format: cell-based, human. To be noted: target cells pulsed with corresponding peptide vs without peptide pulse. The procedure: CTLs were expanded in culture using the method similar to the one described by Riddell et al. (Walter E A et al., N Engl J Med 1995 Oct. 19, 333(16): 1038-44; Riddell S R et al., Nat Med 1996 February, 2(2): 216-23). A total of 5×10^4 CTLs were suspended in 25 ml of AIM-V/5% AS medium with 2 kinds of human B-lymphoblastoid cell lines, inactivated by Mitomycin C, in the presence of 40 ng/ml of anti-CD3 monoclonal antibody (Pharmingen). One day after initiating the cultures, 120 IU/ml of IL-2 were added to the cultures. The cultures were fed with fresh AIM-V/5% AS medium containing 30 IU/ml of IL-2 on days 5, 8 and 11 (Tanaka H et al., Br J Cancer 2001 Jan. 5, 84(1): 94-9; Umano Y et al., Br J Cancer 2001 Apr. 20, 84(8): 1052-7; Uchida N et al., Clin Cancer Res 2004 Dec. 15, 10(24): 8577-86; Watanabe T et al., Cancer Sci 2005 August, 96(8): 498-506; Suda T et al., Cancer Sci 2006 May, 97(5): 411-9).
as §1, §2

Entries after “also recorded” stand apart in the source; their conditions may differ. Square brackets hold non-standard residues; d marks the D form. Ends that are not written are not given here.

On to IYTWIEDHF [SEQ ID NO: 2], for which, in test [1] (listed as FOXM1-A24-9-262), the “IFN-gamma production of CTL clones compared with the control” value is given as “potent IFN-gamma production”. For the same substance, the “specific CTL activity against COS7 cells transfected with both FOXM1 and HLA-A*2402” value in test [2] (CTLs raised by the peptide as effector cells, listed as FOXM1-A24-9-262) is “potent CTL activity; also recorded: specific CTL activity”. Further, the “specific CTL activity against control COS7 cells expressing either HLA-A*2402 or FOXM1” value in test [2] (controls transfected with only one gene) is given as “no significant specific CTL activity”. Moreover, the “IFN-gamma production of peptide-induced CTLs compared with the control” value in test [3] is recorded as “potent IFN-gamma production”. Further, the “IFN-gamma production of CTL lines compared with the control” value in test [4] is reported as “potent IFN-gamma production”.

On to KFPAGIKII [SEQ ID NO: 8], for which the “IFN-gamma production of peptide-induced CTLs compared with the control” value in test [3] is “potent IFN-gamma production”.

Turning to “LTLDqVFKPL (LTLD[code q]VFKPL) [SEQ ID NO: 25]”, the “IFN-gamma production of peptide-induced CTLs compared with the control” value in test [3] is recorded as “potent IFN-gamma production”. Also, in test [4], the “IFN-gamma production of CTL lines compared with the control” value is given as “potent IFN-gamma production”.

With “PYSYmAMIQF (PYSY[code m]AMIQF) [SEQ ID NO: 31]”, the “IFN-gamma production of CTL clones compared with the control” value in test [1] (listed as FOXM1-A24-10-238) is recorded as “potent IFN-gamma production”. Further, the “IFN-gamma production of peptide-induced CTLs compared with the control” value in test [3] was “potent IFN-gamma production”. Moreover, in test [4], the “IFN-gamma production of CTL lines compared with the control” value is “potent IFN-gamma production”.

As for RNMTIKTEL [SEQ ID NO: 7], the “IFN-gamma production of peptide-induced CTLs compared with the control” value in test [3] is recorded as “potent IFN-gamma production”.

For RYLTLDQVF [SEQ ID NO: 1], the “IFN-gamma production of peptide-induced CTLs compared with the control” value in test [3] (listed as FOXM1-A24-9-316) is listed as “not shown specific IFN-gamma production; also recorded: typical negative data of CTL response”.

“SYMAmIQFAI (SYMA[code m]IQFAI) [SEQ ID NO: 16]”: the “IFN-gamma production of CTL clones compared with the control” value in test [1] (listed as FOXM1-A24-10-240) is given as “potent IFN-gamma production”. Moreover, in test [3], the “IFN-gamma production of peptide-induced CTLs compared with the control” value is on record as “potent IFN-gamma production”. Also, in test [4], the “IFN-gamma production of CTL lines compared with the control” value is “potent IFN-gamma production”.

In the case of “VLQPsVKVPL (VLQP[code s]VKVPL) [SEQ ID NO: 30]”, the “IFN-gamma production of peptide-induced CTLs compared with the control” value in test [3] is “potent IFN-gamma production”.
